In patent US20110136730A1, “"Method for screening compounds comprising the use of picornavirus protease 2A"” (priority 2008, published 2011):

system: WT FMDV StopGo expressing construct in HEK-293 cells; type: cell-based, human

Molecule	effect on the Renilla/firefly ratio of the WT StopGo expressing construct
COc1ccc(C[C@H]2NC[C@H](O)[C@H]2OC(C)=O)cc1 [anisomycin]	do not affect StopGo
CC[C@H]1OC(=O)[C@H](C)[C@@H](O[C@H]2C[C@@](C)(OC)[C@@H](O)[C@H](C)O2)[C@H](C)[C@@H](O[C@@H]2O[C@H](C)C[C@H](N(C)C)[C@H]2O)[C@](C)(O)C[C@@H](C)CN(C)[C@H](C)[C@@H](O)[C@]1(C)O [azithromycin]	do not affect StopGo
CC[C@H]1OC(=O)[C@H](C)[C@@H](O[C@H]2C[C@@](C)(OC)[C@@H](O)[C@H](C)O2)[C@H](C)[C@@H](O[C@@H]2O[C@H](C)C[C@H](N(C)C)[C@H]2O)[C@](C)(OC)C[C@@H](C)C(=O)[C@H](C)[C@@H](O)[C@]1(C)O [clarithromycin]	do not affect StopGo
CCC[C@@H]1C[C@@H](C(=O)N[C@@H]([C@H]2O[C@H](SC)[C@H](O)[C@@H](O)[C@H]2O)[C@H](C)Cl)N(C)C1 [clindomygin]	do not affect StopGo
C[C@H]1O[C@H](O[C@H]2[C@H](O)[C@@H](O)[C@@H](O)[C@H](O)[C@@H]2O)[C@@H](N)C[C@@H]1NC(=N)C(=O)O [kasugamycin]	do not affect StopGo
CCC[C@@H]1C[C@@H](C(=O)N[C@@H]([C@H]2O[C@H](SC)[C@H](O)[C@@H](O)[C@H]2O)[C@@H](C)O)N(C)C1 [lincomycin]	do not affect StopGo
C=C[C@]1(C)C[C@@H](OC(=O)CSCCN(CC)CC)[C@]2(C)[C@H](C)CC[C@]3(CCC(=O)[C@H]32)[C@@H](C)[C@@H]1O [tiamulin]	do not affect StopGo
CO[C@H]1C[C@H](O[C@H]2[C@H](C)[C@@H](O[C@@H]3O[C@H](C)C[C@H](N(C)C)[C@H]3OC(C)=O)[C@@H](C)C[C@@]3(CO3)C(=O)[C@H](C)[C@@H](OC(C)=O)[C@@H](C)[C@@H](C)OC(=O)[C@@H]2C)O[C@@H](C)[C@@H]1OC(C)=O [troleandomycin]	do not affect StopGo
CC[C@H]1OC(=O)C[C@@H](O)[C@H](C)[C@@H](O[C@@H]2O[C@H](C)[C@@H](O[C@H]3C[C@@](C)(O)[C@@H](O)[C@H](C)O3)[C@H](N(C)C)[C@H]2O)[C@@H](CC=O)C[C@@H](C)C(=O)/C=C/C(C)=C/[C@@H]1CO[C@@H]1O[C@H](C)[C@@H](O)[C@@H](OC)[C@H]1OC [tylosin]	do not affect StopGo
C=C[C@]1(C)C[C@@H](OC(=O)CSC(C)(C)CNC(=O)[C@H](N)C(C)C)[C@]2(C)[C@H](C)CC[C@]3(CCC(=O)[C@H]32)[C@@H](C)[C@@H]1O [valnemulin]	do not affect StopGo
capromycin	do not affect StopGo
gentamycin	do not affect StopGo
